The results in this text go back to patent US11654169B2, “Methods for protecting skin and/or promoting wound healing” (SINPHAR PHARMACEUTICAL CO., LTD., priority 2016, dated 2023).

Holding throughout (format): cell-based
Assay [1] relates to normal primary human skin fibroblastic cells. Put plainly: Content of collagen in cell medium (extracellular collagen) of fibroblasts (Western blot and ELISA), relative to control. The conditions noted are these: 48 hours; for relative content of collagen in the medium (extracellular content of collagen): control group = 100%; for extracellular contents of collagen (collagen in cell medium) as compared to the control group (in words): treated cells vs control group. The method, then: The normal primary human skin fibroblastic cells (purchased from ATCC) were cultivated in a Fibroblast Growth Medium. The cells thus provided were used in the following experiments.
The normal primary human skin fibroblastic cells provided by [Preparation Example C] were divided into 4 groups and were respectively cultivated with the following medium for 48 hours: • 1. Group I: a Fibroblast Growth Medium; • 2.
(§1) Thereafter, the cell medium of each group was collected and concentrated. Then, the intracellular content of collagen, the content of collagen in cell medium (i.e., extracellular content of collagen) and the content of hyaluronic acid in cell medium were measured and analyzed by Western blot and enzyme-linked immunosorbent assay (ELISA).
(§2) The normal primary human skin fibroblastic cells provided by [Preparation Example C] were divided into 37 groups and were respectively cultivated with the following medium for 48 hours: • 1. Group 1: a Fibroblast Growth Medium • 2. Group 2-1 to 2-3: Fibroblast Growth Media containing the pachymic acid (PA) provided by [Preparation Example B] at a concentration of 0.01, 0.1 and 1 μM, respectively; • 3. Group 3-1 to 3-3: Fibroblast Growth Media containing the dehydropachymic acid (DPA) provided by [Preparation Example B] at a concentration of 0.01, 0.1 and 1 μM, respectively; • 4. Group 4-1 to 4-3: Fibroblast Growth Media containing the tumulosic acid (TA) provided by [Preparation Example B] at a concentration of 0.01, 0.1 and 1 μM, respectively; • 5. Group 5-1 to 5-3: Fibroblast Growth Media containing the dehydrotumulosic acid (DTA) provided by [Preparation Example B] at a concentration of 0.01, 0.1 and 1 μM, respectively; • 6. Group 6-1 to 6-3: Fibroblast Growth Media containing the polyporenic acid C (PAC) provided by [Preparation Example B] at a concentration of 0.01, 0.1 and 1 μM, respectively; • 7. Group 7-1 to 7-3: Fibroblast Growth Media containing the 3-epi-dehydrotumulosic acid (EDTA) provided by [Preparation Example B] at a concentration of 0.01, 0.1 and 1 μM, respectively; • 8. Group 8-1 to 8-3: Fibroblast Growth Media containing the dehydrotrametenolic acid (DTTA) provided by [Preparation Example B] at a concentration of 0.01, 0.1 and 1 μM, respectively; • 9. Group 9-1 to 9-3: Fibroblast Growth Media containing the trametenolic acid (TTA) provided by [Preparation Example B] at a concentration of 0.01, 0.1 and 1 μM, respectively; • 10. Group 10-1 to 10-3: Fibroblast Growth Media containing the poricoic acid A (PAA) provided by [Preparation Example B] at a concentration of 0.01, 0.1 and 1 μM, respectively; • 11. Group 11-1 to 11-3: Fibroblast Growth Media containing the dehydroeburicoic acid (DEA) provided by [Preparation Example B] at a concentration of 0.01, 0.1 and 1 μM, respectively; • 12. Group 12-1 to 12-3: Fibroblast Growth Media containing the poricoic acid B (PAB) provided by [Preparation Example B] at a concentration of 0.01, 0.1 and 1 μM, respectively; • 13. Group 13-1 to 13-3: Fibroblast Growth Media containing the eburicoic acid (EA) provided by [Preparation Example B] at a concentration of 0.01, 0.1 and 1 μM, respectively.
The content of collagen in the medium of each group (i.e., extracellular content of collagen) was provided.
A general note: Immunoblotting shows a protein as a band on a membrane.

For assay [2] the test system is unchanged. The assay is described as follows: Intracellular content of collagen in fibroblasts (Western blot and ELISA), relative to control. The conditions noted are these: 48 hours; for relative intracellular content of collagen: control group = 100%; for intracellular contents of collagen as compared to the control group (in words): treated cells vs control group. The method, then:
(§3) The normal primary human skin fibroblastic cells (purchased from ATCC) were cultivated in a Fibroblast Growth Medium. The cells thus provided were used in the following experiments. […]
as §2
Thereafter, the cell medium of each group was collected and concentrated. Then, the intracellular content of collagen was measured and analyzed by Western blot and enzyme-linked immunosorbent assay (ELISA).

The test system is the same in assay [3]. Put plainly: Content of hyaluronic acid in cell medium of fibroblasts (Western blot and ELISA), relative to control. The conditions noted are these: 48 hours; for relative content of hyaluronic acid in the medium (extracellular content of hyaluronic acid): control group = 100%. The method, then:
as §3, §1, §2
The content of hyaluronic acid in the medium of each group (i.e., extracellular content of hyaluronic acid) was provided.

Structures are written as SMILES.

As for `C=C(CC[C@@H](C(=O)O)[C@H]1CC[C@@]2(C)C3=CC[C@H]4C(C)(C)[C@@H](O)CC[C@]4(C)C3=CC[C@]12C)C(C)C` [Dehydroeburicoic acid (DEA), dehydroeburicoic acid], the figures for the “relative content of collagen in the medium (extracellular content of collagen)” value (“relative content of collagen” below) in assay [1] (0.01 μM), in assay [1] (0.1 μM) and in assay [1] (1 μM) were 143%, 148% and 185%, respectively. In addition, the “extracellular contents of collagen (collagen in cell medium) as compared to the control group (in words)” value in assay [1] is “significantly enhanced”. For the same compound, the “relative intracellular content of collagen” value in assay [2] (0.01 μM) was determined as 94%; in assay [2] (0.1 μM), 80%; in assay [2] (1 μM) it was 77%. Further, the “relative content of hyaluronic acid in the medium (extracellular content of hyaluronic acid)” value (“relative content of hyaluronic acid” below) is reported as 115% in assay [3] (0.01 μM), 118% in assay [3] (0.1 μM) and 128% in assay [3] (1 μM). Besides, in assay [3] (treated cells vs control group), the “contents of hyaluronic acid as compared to the control group (in words)” value is listed as “significantly enhanced”.
On to `C=C(CC[C@@H](C(=O)O)[C@H]1[C@H](O)C[C@@]2(C)C3=CC[C@H]4C(C)(C)C(=O)CC[C@]4(C)C3=CC[C@]12C)C(C)C` [Polyporenic acid C (PAC), polyporenic acid C], for which the “relative content of collagen” value is recorded as 134% in assay [1] (0.01 μM), 162% in assay [1] (0.1 μM) and 153% in assay [1] (1 μM). Also, the “extracellular contents of collagen (collagen in cell medium) as compared to the control group (in words)” value in assay [1] is on record as “significantly enhanced”. In addition, the “relative intracellular content of collagen” value in assay [2] (0.01 μM) is 162%; in assay [2] (0.1 μM) it was 182%; in assay [2] (1 μM) it was 200%. For the same compound, in assay [2], the “intracellular contents of collagen as compared to the control group (in words)” value is recorded as “significantly enhanced”. Further, the “relative content of hyaluronic acid” value in assay [3] (0.01 μM) stood at 93%; in assay [3] (0.1 μM) it was 113%; in assay [3] (1 μM), 98%. Further, in assay [3] (treated cells vs control group), the “contents of hyaluronic acid as compared to the control group (in words)” value is recorded as “significantly enhanced”.
As to `C=C(CC[C@@H](C(=O)O)[C@H]1[C@H](O)C[C@@]2(C)C3=CC[C@H]4C(C)(C)[C@H](O)CC[C@]4(C)C3=CC[C@]12C)C(C)C` [3-epi-dehydrotumulosic acid (EDTA), 3-epi-dehydrotumulosic acid], the “relative content of collagen” value in assay [1] (0.01 μM) turned out to be 98%; in assay [1] (0.1 μM), 104%; in assay [1] (1 μM) it was 111%. For the same compound, in assay [1], the “extracellular contents of collagen (collagen in cell medium) as compared to the control group (in words)” value is given as “significantly enhanced”. For the same compound, the figures for the “relative intracellular content of collagen” value in assay [2] (0.01 μM), in assay [2] (0.1 μM) and in assay [2] (1 μM) were 87%, 100% and 80%, respectively. Moreover, the “relative content of hyaluronic acid” value in assay [3] (0.01 μM) was determined as 105%; in assay [3] (0.1 μM), 122%; in assay [3] (1 μM), 140%. For the same compound, the “contents of hyaluronic acid as compared to the control group (in words)” value in assay [3] (treated cells vs control group) was “significantly enhanced”. Besides, the “contents of hyaluronic acid, ingredients singled out as stronger (in words)” value in assay [3] (treated cells vs control group, compared with the other active ingredients) is recorded as “enhanced more significantly”.
Regarding `C=C(C)[C@@H]1CC=C2C(=CC[C@]3(C)[C@@H]([C@@H](CCC=C(C)C)C(=O)O)[C@H](O)C[C@@]23C)[C@@]1(C)CCC(=O)O` [Poricoic acid B (PAB), poricoic acid B], the figures for the “relative content of collagen” value in assay [1] (0.01 μM), in assay [1] (0.1 μM) and in assay [1] (1 μM) were 122%, 136% and 153%, respectively. For the same compound, the “extracellular contents of collagen (collagen in cell medium) as compared to the control group (in words)” value in assay [1] is “significantly enhanced”. In addition, the “relative intracellular content of collagen” value stood at 105% in assay [2] (0.01 μM), 108% in assay [2] (0.1 μM) and 99% in assay [2] (1 μM). The “relative content of hyaluronic acid” value is on record as 109% in assay [3] (0.01 μM), 104% in assay [3] (0.1 μM) and 84% in assay [3] (1 μM). Further, in assay [3] (treated cells vs control group), the “contents of hyaluronic acid as compared to the control group (in words)” value was “significantly enhanced”.
Take `C=C(CC[C@@H](C(=O)O)[C@H]1[C@H](O)C[C@@]2(C)C3=C(CC[C@]12C)[C@@]1(C)CC[C@H](O)C(C)(C)[C@@H]1CC3)C(C)C` [Tumulosic acid (TA), tumulosic acid]: the results for the “relative content of collagen” value in assay [1] (0.01 μM), in assay [1] (0.1 μM) and in assay [1] (1 μM) were 140%, 136% and 141%, respectively. The “relative intracellular content of collagen” value in assay [2] (0.01 μM) came to 148%; in assay [2] (0.1 μM) it was 127%; in assay [2] (1 μM), 147%. For the same compound, the “relative content of hyaluronic acid” value in assay [3] (0.01 μM) is listed as 100%; in assay [3] (0.1 μM) it was 123%; in assay [3] (1 μM), 124%.
Regarding `C=C(CC[C@@H](C(=O)O)[C@H]1[C@H](O)C[C@@]2(C)C3=CC[C@@H](C(=C)C)[C@](C)(CCC(=O)O)C3=CC[C@]12C)C(C)C` [Poricoic acid A (PAA), poricoic acid A], the “relative content of collagen” value in assay [1] (0.01 μM) was 111%; in assay [1] (0.1 μM) it was 111%; in assay [1] (1 μM), 91%. Further, the “extracellular contents of collagen (collagen in cell medium) as compared to the control group (in words)” value in assay [1] is given as “significantly enhanced”. Further, the “relative intracellular content of collagen” value was 78% in assay [2] (0.01 μM), 104% in assay [2] (0.1 μM) and 115% in assay [2] (1 μM). Besides, in assay [2], the “intracellular contents of collagen as compared to the control group (in words)” value is “significantly enhanced”. Also, the “relative content of hyaluronic acid” value in assay [3] (0.01 μM) worked out at 108%; in assay [3] (0.1 μM), 106%; in assay [3] (1 μM), 99%. Further, the “contents of hyaluronic acid as compared to the control group (in words)” value in assay [3] (treated cells vs control group) is listed as “significantly enhanced”.
On to `C=C(CC[C@@H](C(=O)O)[C@H]1[C@H](O)C[C@@]2(C)C3=C(CC[C@]12C)[C@@]1(C)CC[C@H](OC(C)=O)C(C)(C)[C@@H]1CC3)C(C)C` [Pachymic acid (PA), pachymic acid], for which the “relative content of collagen” value in assay [1] (0.01 μM) was determined as 117%; in assay [1] (0.1 μM), 116%; in assay [1] (1 μM), 106%. Besides, the entries for the “relative intracellular content of collagen” value in assay [2] (0.01 μM), in assay [2] (0.1 μM) and in assay [2] (1 μM) were 172%, 235% and 211%, respectively. The “relative content of hyaluronic acid” value in assay [3] (0.01 μM) stood at 98%; in assay [3] (0.1 μM), 132%; in assay [3] (1 μM) it was 140%.
